Measured values from ChEMBL document CHEMBL2385047, “Synthesis and antifungal evaluation of pentyloxyl-diphenylisoxazoloyl pneumocandins and echinocandins” (Bioorg Med Chem Lett, 2013).
Values after ≈ are worked out from the molar mass of the structure shown. Numbered stars: 1 amine (or outer) side, 2 acyl side, 3 side chain; on linkers, the order of the positions; unused ones are H or OH. Bridge positions count the residues as written; N and C are the ends. Square brackets hold non-standard residues; d marks the D form. Peptide text beside a SMILES is read from it. * marks the point of attachment. Orn(4R-OH,5R-OH) = O=C([C@H](C[C@@H](O)[C@@H](O)N[*:3])N[*:1])[*:2]; Tetradecanoyl(10R,12S-Me2) = CC[C@H](C)C[C@H](C)CCCCCCCCC(=O)*; hTyr(3S-OH,4S-OH) = N[C@H](C(=O)O)[C@H](O)[C@@H](O)c1ccc(O)cc1; Pro(3S-OH,4S-Me) = C[C@H]1CN[C@H](C(=O)O)[C@H]1O; X1 = CCCCCOc1ccc(-c2cc(-c3ccc(C(=O)*)cc3)no2)cc1; Gln(3R-OH) = NC(=O)C[C@@H](O)[C@H](N)C(=O)O; Pro(3S-OH) = O=C(O)[C@H]1NCC[C@@H]1O; Hyp = O=C(O)[C@@H]1C[C@@H](O)CN1

Legend:
Staphylococcus aureus = assay: Antibacterial activity against methicillin-sensitive Staphylococcus aureus MB2865 assessed as growth inhibition after 24 hrs by NCCLS broth microdilution method; assay type: functional; settings: MB2865, 24 h, read-out: MIC100
Candida parapsilosis = assay: Antifungal activity against wild type Candida parapsilosis ATCC 22019 assessed as growth inhibition after 24 hrs by NCCLS broth microdilution method; assay type: functional; settings: Lodderomyces parapsilosis, ATCC 22019, 24 h; for MIC: read-out: MIC100
Beta-1,3-glucan synthase = target: T1, Beta-1,3-glucan synthase (Candida albicans, UniProt O13383); assay: Inhibition of wild type Candida albicans 1,3-beta-D-glucan synthase using UDP[6,3H]-glucose as substrate after 60 mins by liquid scintillation counting analysis
T1 sequence (O13383 whole entry): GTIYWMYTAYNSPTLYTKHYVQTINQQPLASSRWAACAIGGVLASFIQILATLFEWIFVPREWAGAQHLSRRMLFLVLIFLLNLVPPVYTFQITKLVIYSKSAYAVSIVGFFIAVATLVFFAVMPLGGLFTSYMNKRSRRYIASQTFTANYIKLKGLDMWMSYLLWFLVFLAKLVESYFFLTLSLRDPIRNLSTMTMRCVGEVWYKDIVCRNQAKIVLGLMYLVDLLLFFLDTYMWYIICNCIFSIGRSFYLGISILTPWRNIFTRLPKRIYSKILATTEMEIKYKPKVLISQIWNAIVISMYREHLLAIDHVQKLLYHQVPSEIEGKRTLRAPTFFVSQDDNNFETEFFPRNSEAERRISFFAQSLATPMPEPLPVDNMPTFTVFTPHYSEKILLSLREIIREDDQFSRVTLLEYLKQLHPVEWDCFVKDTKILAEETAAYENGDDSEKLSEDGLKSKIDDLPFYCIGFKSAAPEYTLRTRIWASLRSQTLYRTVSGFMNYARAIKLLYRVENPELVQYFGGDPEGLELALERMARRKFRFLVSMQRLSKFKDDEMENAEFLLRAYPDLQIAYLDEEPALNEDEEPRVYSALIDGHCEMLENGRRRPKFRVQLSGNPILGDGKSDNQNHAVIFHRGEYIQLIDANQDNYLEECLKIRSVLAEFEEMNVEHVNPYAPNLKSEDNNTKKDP

Escherichia coli = assay: Antibacterial activity against Escherichia coli ATCC 25922 assessed as growth inhibition after 24 hrs by NCCLS broth microdilution method; assay type: functional; settings: ATCC 25922, 24 h, read-out: MIC100
Candida albicans [1] = assay: Antifungal activity against Candida albicans NR3 assessed as growth inhibition after 24 hrs by NCCLS broth microdilution method; assay type: functional; settings: NR3, 24 h; for MIC: read-out: MIC100
Candida albicans [2] = assay: Antifungal activity against wild type Candida albicans MY1055 assessed as growth inhibition after 24 hrs by NCCLS broth microdilution method in presence of human serum; assay type: functional; settings: MY1055, 24 h; for MIC: read-out: MIC100
Nakaseomyces glabratus = assay: Antifungal activity against wild type Candida glabrata MY1381 assessed as growth inhibition after 24 hrs by NCCLS broth microdilution method; assay type: functional; settings: MY1381, 24 h; for MIC: read-out: MIC100
Pichia kudriavzevii = assay: Antifungal activity against wild type Candida krusei CLY549 assessed as growth inhibition after 24 hrs by NCCLS broth microdilution method; assay type: functional; settings: CLY549, 24 h; for MIC: read-out: MIC100
Candida albicans [3] = assay: Antifungal activity against Candida albicans MY1055 infected in DBA/2 mouse assessed as reduction of log CFU in kidney administered 30 mins as ip tid post infection measured after 24 hrs; assay type: functional
Candida albicans [4] = assay: Antifungal activity against Candida albicans CAI4-R1 assessed as growth inhibition after 24 hrs by NCCLS broth microdilution method; assay type: functional; settings: CAI4-R1, 24 h; for MIC: read-out: MIC100
Aspergillus fumigatus = assay: Antifungal activity against Aspergillus fumigatus MF5668 caspofungin spontaneous resistance mutant assessed as growth inhibition after 24 hrs by NCCLS broth microdilution method; assay type: functional; settings: MF5668, 24 h; for minimal effective concentration: read-out: MEC
Candida albicans [5] = assay: Antifungal activity against wild type Candida albicans CAI4 assessed as growth inhibition after 24 hrs by NCCLS broth microdilution method; assay type: functional; settings: CAI4, 24 h; for MIC: read-out: MIC100
Clavispora lusitaniae = assay: Antifungal activity against wild type Candida lusitaniae MY1396 assessed as growth inhibition after 24 hrs by NCCLS broth microdilution method; assay type: functional; settings: MY1396, 24 h; for MIC: read-out: MIC100
Candida albicans [6] = assay: Antifungal activity against wild type Candida albicans MY1055 assessed as growth inhibition after 24 hrs by NCCLS broth microdilution method; assay type: functional; settings: MY1055, 24 h; for MIC: read-out: MIC100
Cryptococcus neoformans = assay: Antifungal activity against capsular wild type Cryptococcus neoformans MY2061 assessed as growth inhibition after 24 hrs by NCCLS broth microdilution method; assay type: functional; settings: MY2061, 24 h, read-out: MIC100
[7] = tested on: Meyerozyma guilliermondii; assay: Antifungal activity against wild type Candida guilliermondii CLY308 assessed as growth inhibition after 24 hrs by NCCLS broth microdilution method; assay type: functional; settings: CLY308, 24 h; for MIC: read-out: MIC100

Compound | MIC (Staphylococcus aureus) [µg/mL] | MIC80 (Candida parapsilosis) [µg/mL] | MIC (Candida parapsilosis) [µg/mL] | MIC (Escherichia coli) [µg/mL] | MIC (Candida albicans [1]) [µg/mL] | MIC80 (Candida albicans [2]) [µg/mL] | MIC (Candida albicans [2]) [µg/mL] | MIC (Nakaseomyces glabratus) [µg/mL] | MIC80 (Pichia kudriavzevii) [µg/mL] | MIC (Pichia kudriavzevii) [µg/mL] | ED90 (Candida albicans [3]) [mg/kg/day] | ED99 (Candida albicans [3]) [mg/kg/day] | MIC80 (Candida albicans [4]) [µg/mL] | MIC (Candida albicans [4]) [µg/mL] | MIC80 (Aspergillus fumigatus) [µg/mL] | minimal effective concentration (Aspergillus fumigatus) [µg/mL] | MIC80 (Candida albicans [5]) [µg/mL] | MIC (Candida albicans [5]) [µg/mL] | MIC80 (Clavispora lusitaniae) [µg/mL] | MIC (Clavispora lusitaniae) [µg/mL] | other results
CCCCCOc1ccc(-c2cc(-c3ccc(C(=O)N[C@H]4C[C@@H](O)[C@@H](O)NC(=O)[C@@H]5[C@@H](O)[C@@H](C)CN5C(=O)[C@H]([C@H](O)CC(N)=O)NC(=O)[C@H]([C@H](O)[C@@H](O)c5ccc(O)cc5)NC(=O)[C@@H]5C[C@@H](O)CN5C(=O)[C@H]([C@@H](C)O)NC4=O)cc3)no2)cc1 (X1-[Orn(4R-OH,5R-OH)]T[Hyp][hTyr(3S-OH,4S-OH)][Gln(3R-OH)][Pro(3S-OH,4S-Me)]; lactam 1-C) | > 32 | 2 (≈ 1.7 µM) | 32 (≈ 27.3 µM) | > 32 | 4 (≈ 3.41 µM) | 0.25 | 1 | 0.25 (≈ 0.213 µM) | 0.125 (≈ 0.106 µM) | 1 (≈ 0.852 µM) | 0.12 | 0.82 | 0.5 (≈ 0.426 µM) | 2 (≈ 1.7 µM) | < 0.03 | > 32 | < 0.03 | 0.06 (≈ 0.0511 µM) | < 0.03 | 0.125 (≈ 0.106 µM) | IC50 (Beta-1,3-glucan synthase): 35 nM; MIC80 (Candida albicans [1]): 2 µg/mL (≈ 1.7 µM); MIC80 (Nakaseomyces glabratus): 0.06 µg/mL (≈ 0.0511 µM); MIC80 (Candida albicans [6]): < 0.03 µg/mL; MIC (Candida albicans [6]): 0.06 µg/mL (≈ 0.0511 µM); MIC (Cryptococcus neoformans): > 32 µg/mL; MIC80 [7]: 0.5 µg/mL (≈ 0.426 µM); MIC [7]: 2 µg/mL (≈ 1.7 µM)
CC[C@H](C)C[C@H](C)CCCCCCCCC(=O)N[C@H]1C[C@@H](O)[C@@H](O)NC(=O)[C@@H]2[C@@H](O)CCN2C(=O)[C@H]([C@H](O)CC(N)=O)NC(=O)[C@H]([C@H](O)[C@@H](O)c2ccc(O)cc2)NC(=O)[C@@H]2C[C@@H](O)CN2C(=O)[C@H]([C@@H](C)O)NC1=O ({Tetradecanoyl(10R,12S-Me2)}-[Orn(4R-OH,5R-OH)]T[Hyp][hTyr(3S-OH,4S-OH)][Gln(3R-OH)][Pro(3S-OH)]; lactam 1-C) | > 32 | 8 (≈ 7.51 µM) | > 32 | > 32 | > 32 | 16 | 32 | 4 (≈ 3.76 µM) | 8 (≈ 7.51 µM) | 32 (≈ 30 µM) | 2.71 | 13 | 16 (≈ 15 µM) | 32 (≈ 30 µM) | 4 (≈ 3.76 µM) | > 32 | < 0.03 | 0.5 (≈ 0.469 µM) | 1 (≈ 0.939 µM) | 4 (≈ 3.76 µM) | MIC80 (Candida albicans [6]): 0.125 µg/mL (≈ 0.117 µM); MIC (Candida albicans [6]): 0.5 µg/mL (≈ 0.469 µM); MIC (Cryptococcus neoformans): > 32 µg/mL; MIC80 [7]: 4 µg/mL (≈ 3.76 µM); MIC [7]: > 32 µg/mL
CC[C@H](C)C[C@H](C)CCCCCCCCC(=O)N[C@H]1C[C@@H](O)[C@@H](O)NC(=O)[C@@H]2[C@@H](O)[C@@H](C)CN2C(=O)[C@H]([C@H](O)CC(N)=O)NC(=O)[C@H]([C@H](O)[C@@H](O)c2ccc(O)cc2)NC(=O)[C@@H]2C[C@@H](O)CN2C(=O)[C@H]([C@@H](C)O)NC1=O ({Tetradecanoyl(10R,12S-Me2)}-[Orn(4R-OH,5R-OH)]T[Hyp][hTyr(3S-OH,4S-OH)][Gln(3R-OH)][Pro(3S-OH,4S-Me)]; lactam 1-C) | > 32 | 8 (≈ 7.41 µM) | > 32 | > 32 | > 32 | 16 | 32 | 4 (≈ 3.71 µM) | 4 (≈ 3.71 µM) | 8 (≈ 7.41 µM) | 1.15 | 6.77 | 8 (≈ 7.41 µM) | 16 (≈ 14.8 µM) | 4 (≈ 3.71 µM) | > 32 | < 0.03 | 0.5 (≈ 0.463 µM) | 1 (≈ 0.927 µM) | 4 (≈ 3.71 µM) | IC50 (Beta-1,3-glucan synthase): 17.6 nM; MIC80 (Candida albicans [1]): 32 µg/mL (≈ 29.7 µM); MIC80 (Nakaseomyces glabratus): 2 µg/mL (≈ 1.85 µM); MIC80 (Candida albicans [6]): 0.125 µg/mL (≈ 0.116 µM); MIC (Candida albicans [6]): 0.5 µg/mL (≈ 0.463 µM); MIC (Cryptococcus neoformans): > 32 µg/mL; MIC80 [7]: 4 µg/mL (≈ 3.71 µM); MIC [7]: 32 µg/mL (≈ 29.7 µM)
